What was measured:
strain MNH05026 = assay: Antibiotic sensitivity test, disk diffusion method; format: cell-based, Megasphaera sp.
Protocol: (§1) Antibiotic sensitivity tests of the strains MNH05026, MNH22004, and MNH27256: Antibiotic sensitivity tests were carried out on the strains MNH05026, MNH22004, and MNH27256 by a disk diffusion method.

strain MNH22004 = assay: Antibiotic sensitivity test, disk diffusion method; format: cell-based, Megasphaera sp.
Protocol: as §1

strain MNH27256 = assay: Antibiotic sensitivity test, disk diffusion method; format: cell-based, Megasphaera sp.
Protocol: as §1

[1] = system: mice with NAFLD/NASH induced by a high-fat, high-carbohydrate, and high-cholesterol diet; assay: NAFLD/NASH mouse model (high-fat, high-carbohydrate, high-cholesterol diet), strains combined with Semaglutide (Example 9); format: in vivo, C57BL/6J mice
Protocol: 3) Controls: PBS-Cys containing 25% glycerol PBS-Cys was used as a negative control; and Semaglutide was used as a positive control.
Administration was initiated after the grouping (D1). The negative control group was given the negative control (PBS-Cys) by gavage, 0.2 mL/mouse, twice a day; the positive control group was given Semaglutide by subcutaneous injection, at a dose of 30 nmol/kg, once every 3 days; and the combined treatment group was given Semaglutide (at a dose and frequency of use the same as those in the positive control group) and the corresponding bacterial solution (0.2 mL/mouse, twice a day) by gavage. The experimental period was 60 days. […] During the experiment, one general clinical observation was conducted after the end of each dosing. The animals were weighed twice a week during the dosing, and before dissection at the experimental endpoint. The endpoint of this experiment was the day following the end of dosing (D61). The animals were dissected and sampled according to the protocol at the experimental endpoint, and the data were summarized to analyze the results. […] Statistical analysis was performed using One-Way ANOVA with Dunnett's multiple comparison test.
Relevant experiments were conducted for the strains MNH05026, MNH22004, and MNH27256 using the methods as described in 1) to 4) above.

Compound | Sensitivity or resistance of strain MNH05026 to the antibiotic (strain MNH05026) | Sensitivity or resistance of strain MNH22004 to the antibiotic (strain MNH22004) | Sensitivity or resistance of strain MNH27256 to the antibiotic (strain MNH27256) | further results
CC1(C)S[C@@H]2[C@H](NC(=O)[C@H](N)c3ccccc3)C(=O)N2[C@H]1C(=O)O [Ampicillin] | sensitive | resistant | resistant | –
CO/N=C(\C(=O)N[C@@H]1C(=O)N2C(C(=O)O)=C(CSc3nc(=O)c(=O)[nH]n3C)CS[C@H]12)c1csc(N)n1 [Ceftriaxone] | sensitive | sensitive | resistant | –
O=C(N[C@H](CO)[C@H](O)c1ccc([N+](=O)[O-])cc1)C(Cl)Cl [Chloramphenicol] | sensitive | sensitive | sensitive | –
O=C(O)c1cn(C2CC2)c2cc(N3CCNCC3)c(F)cc2c1=O [Ciprofloxacin] | sensitive | sensitive | sensitive | –
CC[C@H]1OC(=O)[C@H](C)[C@@H](O[C@H]2C[C@@](C)(OC)[C@@H](O)[C@H](C)O2)[C@H](C)[C@@H](O[C@@H]2O[C@H](C)C[C@H](N(C)C)[C@H]2O)[C@](C)(O)C[C@@H](C)C(=O)[C@H](C)[C@@H](O)[C@]1(C)O [Erythromycin] | sensitive | sensitive | sensitive | –
CCC[C@@H]1C[C@@H](C(=O)N[C@@H]([C@H]2O[C@H](SC)[C@H](O)[C@@H](O)[C@H]2O)[C@@H](C)O)N(C)C1 [Lincomycin] | sensitive | sensitive | sensitive | –
Gentamicin | sensitive | sensitive | sensitive | Diameter of inhibition zone by MNH22004 (strain MNH22004): 9.00 mm
Penicillin | sensitive | resistant | resistant | Diameter of inhibition zone by MNH22004 (strain MNH22004): 0 mm; Diameter of inhibition zone by MNH27256 (strain MNH27256): 0 mm
Semaglutide | – | – | – | fasting blood glucose ([1]; Day 30 of oral glucose tolerance test): no significant effect; body weight, 1 d ([1]; day 1, in g (unit assumed)): 45.97; body weight, 33 d ([1]; day 33, in g (unit assumed)): 36.18; weight gain value ([1]; day 33 of intervention): −21.30%; body weight, 36 d ([1]; day 36, in g (unit assumed)): 35.94; body weight, 41 d ([1]; day 41, in g (unit assumed)): 35.98; body weight, 44 d ([1]; day 44, in g (unit assumed)): 36.34; body weight, 48 d ([1]; day 48, in g (unit assumed)): 37.02; body weight, 51 d ([1]; day 51, in g (unit assumed)): 37.26; body weight, 54 d ([1]; day 54, in g (unit assumed)): 36.84; body weight, 58 d ([1]; day 58, in g (unit assumed)): 38.09; body weight, 60 d ([1]; day 60, in g (unit assumed)): 36.67
Trimethoprim-sulfamethoxazole | sensitive | sensitive | sensitive | –

Reference: patent publication US20250332201A1, “PHARMACEUTICAL COMPOSITION, MEGASPHAERA, AND USE THEREOF” (MOON (GUANGZHOU) BIOTECH CO., LTD., priority 2022, published 2025)
